In US20150307938A1, “METHOD TO IDENTIFY A NOVEL CLASS OF IMMUNOLOGIC ADJUVANTS” (Lancell, L.L.C., priority 2011, published 2015):
Values joined by “and” are separate entries in the source; they are usually repeats but may differ in a detail not shown here. Equal entries are not always repeated.

System: skin
Assay: Affymetrix microarray of skin, DBP-4 hr and analogs vs. untreated; gene selection by log-2 fold change, Wilcoxon, Kendall tau (Tables 8, 9)
Assay type: in vivo, mouse
Conditions: mouse, in vivo

Question: CCCCOC(=O)c1ccccc1C(=O)OCCCC [DBP, dibutylphthalate] was tested. Which “AY026312 NM_133359_at ≧2-Fold change” value did it give?
Answer: No

Question: What about the “Abcc3 (NM_029600_at) ≧2-Fold change” value of the same molecule?
Answer: Yes

Question: And the “Acot5 (NM_145444_at) ≧2-Fold change” value?
Answer: Yes

Question: What about the “Actn2 NM_033268_at ≧2-Fold change” value of the same molecule?
Answer: No

Question: And the “Adamts4 (NM_172845_at) ≧2-Fold change” value?
Answer: Yes

Question: And the “Akap12 (NM_031185_at) ≧2-Fold change” value?
Answer: Yes

Question: And the “Akr1c14 NM_134072_at ≧2-Fold change” value?
Answer: No

Question: And the “Aldh7a1 NM_001127338_at ≧2-Fold change” value?
Answer: No

Question: What about the “Angptl4 (NM_020581_at) ≧2-Fold change” value of the same molecule?
Answer: Yes

Question: What about the “Aox4 NM_023631_at ≧2-Fold change” value of the same molecule?
Answer: No

Question: What about the “Arc (NM_018790_at) ≧2-Fold change” value of the same molecule?
Answer: Yes

Question: What about the “Arid5a (NM_145996_at) ≧2-Fold change” value of the same molecule?
Answer: Yes

Question: And the “Arid5a (NR_033310_at) ≧2-Fold change” value?
Answer: Yes

Question: What about the “Asb5 NM_029569_at ≧2-Fold change” value of the same molecule?
Answer: No

Question: And the “Atp2a2 NM_001110140_at ≧2-Fold change” value?
Answer: No

Question: And the “Atp13a3 NM_001128094_at ≧2-Fold change” value?
Answer: No

Question: What about the “Atp13a3 NM_001128096_at ≧2-Fold change” value of the same molecule?
Answer: No

Question: And the “Bcar3 (NM_013867_at) ≧2-Fold change” value?
Answer: Yes

Question: What about the “Bcl3 (NM_033601_at) ≧2-Fold change” value of the same molecule?
Answer: Yes

Question: What about the “Bcr NM_001081412_at ≧2-Fold change” value of the same molecule?
Answer: No

Question: And the “Bhlhe40 (NM_011498_at) ≧2-Fold change” value?
Answer: Yes

Question: And the “Calcb (NM_054084_at) ≧2-Fold change” value?
Answer: Yes

Question: And the “Camk2g NM_001039138_at ≧2-Fold change” value?
Answer: No

Question: What about the “Camk2g NM_001039139_at ≧2-Fold change” value of the same molecule?
Answer: No

Question: And the “Ccl1 (NM_011329_at) ≧2-Fold change” value?
Answer: Yes

Question: And the “Ccl2 (NM_011333_at) ≧2-Fold change” value?
Answer: Yes

Question: And the “Ccl3 (NM_011337_at) ≧2-Fold change” value?
Answer: Yes

Question: And the “Ccl7 (NM_013654_at) ≧2-Fold change” value?
Answer: Yes

Question: And the “Ccl8 NM_021443_at ≧2-Fold change” value?
Answer: No

Question: And the “Ccl9 (NM_011338_at) ≧2-Fold change” value?
Answer: Yes

Question: And the “Ccl12 (NM_011331_at) ≧2-Fold change” value?
Answer: Yes

Question: And the “Ccl17 (NM_011332_at) ≧2-Fold change” value?
Answer: Yes

Question: And the “Ccl20 (NM_016960_at) ≧2-Fold change” value?
Answer: Yes

Question: What about the “Ccl24 NM_019577_at ≧2-Fold change” value of the same molecule?
Answer: No

Question: What about the “Cd86 (NM_019388_at) ≧2-Fold change” value of the same molecule?
Answer: Yes

Question: And the “Cd207 (NM_144943_at) ≧2-Fold change” value?
Answer: Yes

Question: What about the “Cd209d NM_130904_at ≧2-Fold change” value of the same molecule?
Answer: No

Question: What about the “Ckmt2 NM_198415_at ≧2-Fold change” value of the same molecule?
Answer: No

Question: What about the “Cldn8 NM_018778_at ≧2-Fold change” value of the same molecule?
Answer: No

Question: And the “Clec4e (NM_019948_at) ≧2-Fold change” value?
Answer: Yes

Question: What about the “Clec4n NM_020001_at ≧2-Fold change” value of the same molecule?
Answer: No

Question: And the “Clec7a (NM_020008_at) ≧2-Fold change” value?
Answer: Yes

Question: What about the “Clec4d (NM_010819_at) ≧2-Fold change” value of the same molecule?
Answer: Yes

Question: And the “Clic4 (NM_013885_at) ≧2-Fold change” value?
Answer: Yes

Question: And the “Cmya5 NM_023821_at ≧2-Fold change” value?
Answer: No

Question: What about the “Comp NM_016685_at ≧2-Fold change” value of the same molecule?
Answer: No

Question: What about the “Corin NM_016869_at ≧2-Fold change” value of the same molecule?
Answer: No

Question: And the “Crem (NM_013498_at) ≧2-Fold change” value?
Answer: Yes

Question: And the “Crispld1 NM_031402_at ≧2-Fold change” value?
Answer: No

Question: What about the “Cxcl10 NM_021274_at ≧2-Fold change” value of the same molecule?
Answer: No

Question: And the “Cxcl16 (NM_023158_at) ≧2-Fold change” value?
Answer: Yes

Question: What about the “Cxcr6 NM_030712_at ≧2-Fold change” value of the same molecule?
Answer: No

Question: And the “Cyr61 (NM_010516_at) ≧2-Fold change” value?
Answer: Yes

Question: And the “Cyth1 NM_001112699_at ≧2-Fold change” value?
Answer: No

Question: What about the “Cyth1 NM_001112700_at ≧2-Fold change” value of the same molecule?
Answer: No

Question: And the “Cytip (NM_139200_at) ≧2-Fold change” value?
Answer: Yes

Question: And the “DBP LogFold-Change Versus-Untreated: 1600029D21Rik” value?
Answer: 1.52

Question: What about the “DBP LogFold-Change Versus-Untreated: 1810055G02Rik” value of the same molecule?
Answer: 0.89

Question: What about the “DBP LogFold-Change Versus-Untreated: 5730408K05Rik” value of the same molecule?
Answer: 0.91

Question: And the “DBP LogFold-Change Versus-Untreated: 1810011010Rik” value?
Answer: 1.53

Question: What about the “DBP LogFold-Change Versus-Untreated: Abcc3” value of the same molecule?
Answer: 1.09

Question: What about the “DBP LogFold-Change Versus-Untreated: Adam8” value of the same molecule?
Answer: 1.94

Question: What about the “DBP LogFold-Change Versus-Untreated: Adamts4” value of the same molecule?
Answer: 1.41

Question: What about the “DBP LogFold-Change Versus-Untreated: Angptl4” value of the same molecule?
Answer: 2.61

Question: What about the “DBP LogFold-Change Versus-Untreated: Aqp3” value of the same molecule?
Answer: 0.89

Question: And the “DBP LogFold-Change Versus-Untreated: Arc” value?
Answer: 1.90

Question: And the “DBP LogFold-Change Versus-Untreated: Arid5a” value?
Answer: 1.49

Question: What about the “DBP LogFold-Change Versus-Untreated: Bcar3” value of the same molecule?
Answer: 1.08

Question: What about the “DBP LogFold-Change Versus-Untreated: Bcl3” value of the same molecule?
Answer: 2.56

Question: And the “DBP LogFold-Change Versus-Untreated: Bhlhe40” value?
Answer: 1.26

Question: And the “DBP LogFold-Change Versus-Untreated: Birc3” value?
Answer: 1.02

Question: What about the “DBP LogFold-Change Versus-Untreated: Btg2” value of the same molecule?
Answer: 1.56

Question: And the “DBP LogFold-Change Versus-Untreated: Ccl2” value?
Answer: 3.23

Question: And the “DBP LogFold-Change Versus-Untreated: Ccl7” value?
Answer: 3.11

Question: And the “DBP LogFold-Change Versus-Untreated: Ccl12” value?
Answer: 3.10

Question: What about the “DBP LogFold-Change Versus-Untreated: Ccl20” value of the same molecule?
Answer: 5.93

Question: What about the “DBP LogFold-Change Versus-Untreated: Ccrn4l” value of the same molecule?
Answer: 1.75

Question: And the “DBP LogFold-Change Versus-Untreated: Cd44” value?
Answer: 1.31

Question: And the “DBP LogFold-Change Versus-Untreated: Cd86” value?
Answer: 1.73

Question: What about the “DBP LogFold-Change Versus-Untreated: Cd207” value of the same molecule?
Answer: 1.42

Question: And the “DBP LogFold-Change Versus-Untreated: Cebpd” value?
Answer: 1.58

Question: And the “DBP LogFold-Change Versus-Untreated: Ch25h” value?
Answer: 1.91

Question: What about the “DBP LogFold-Change Versus-Untreated: Cirh1a” value of the same molecule?
Answer: 0.79

Question: And the “DBP LogFold-Change Versus-Untreated: Cish” value?
Answer: 1.12

Question: And the “DBP LogFold-Change Versus-Untreated: Clec7a” value?
Answer: 2.09

Question: And the “DBP LogFold-Change Versus-Untreated: Clic4” value?
Answer: 1.12

Question: What about the “DBP LogFold-Change Versus-Untreated: Coro2a” value of the same molecule?
Answer: 0.88

Question: What about the “DBP LogFold-Change Versus-Untreated: Crem” value of the same molecule?
Answer: 1.29 and 1.23

Question: What about the “DBP LogFold-Change Versus-Untreated: Csf2rb” value of the same molecule?
Answer: 1.11
